Data on seven compounds can be found in patent EP0260127A2, “Xanthine derivatives, their preparation and pharmaceutical compositions containing them” (BEECHAM - WUELFING GmbH & Co. KG, priority 1986, dated 1988).

Assay [1] concerns Mongolian gerbils. The assay is described as follows: Gerbil ischaemic deficit passive avoidance test (recall latency following transient forebrain ischaemia). Format: in vivo. Conditions: 3mg/kg p.o., seven administrations; gerbils after 5min bilateral carotid artery ligation; ischaemic controls 14, sham-ligated controls 33. On the procedure: 2. The Gerbil Ischaemic Deficit Passive Avoidance Test.
Mongolian gerbils were conditioned to avoid entering a dark compartment by means of a footshock (maximally 50V, 2s duration) received when entering from the light section of a two compartment box. Recollection of the footshock was examined 24h later by replacing the gerbils in the two compartment box and measuring the recall latency, the time taken to re-enter the dark compartment.
Effect of test compound on recall latency in the gerbil following transient forebrain ischaemia.
A learning or memory deficit was induced in the gerbils by a transient (5min) bilateral carotid artery ligation, performed 24h prior to conditioning, under light hexobarbital anaesthesia.
Compounds, being examined for an effect on learning or memory in gerbils which had undergone carotid occlusion, were administered seven times during the experiment. The initial administration was during the period of forebrain ischaemia, the third and seventh administrations were 10min prior to conditioning and recall testing, respectively, and the remainder were given at intermediate time points.
A long recall latency indicates good information acquisition or retrival.

Assay [2] relates to rat ischaemic gastrocnemius muscle. The assay is described as follows: Effect on oxygen tension (pO2) of rat ischaemic gastrocnemius muscle. Format: in vivo. Conditions: ischaemic hindlimb, femoral artery ligated 2-4 days previously.
The target of assay [3] is cyclic AMP phosphodiesterase. The assay is described as follows: Inhibition of cyclic AMP phosphodiesterase (Dixon plot). Format: biochemical. Particulars: homogenates of rat skeletal muscle; 0.31 µM cyclic AMP as substrate; estimated from Dixon plot; read-out: Apparent Ki value. On the procedure:
4. Inhibition of cyclic AMP phosphodiesterase.
The activity of cyclic AMP phosphodiesterase in homogenates of rat skeletal muscle was measured in the presence of various concentrations of compounds of formula (I) using 0.31 µM cyclic AMP as substrate. The reciprocal of the reaction rate was plotted on the y axis against the concentration of each compound on the x axis (Dixon plot). The apparent Ki value was estimated by extrapolating the steeper linear portion of the Dixon plot to the x axis and obtaining the negative intercept on the x axis.

Marks after values point to notes of the source that are not given here.

Regarding `CCCCn1c(=O)n(CCC(C)O)c(=O)c2c1ncn2CC(C)O` (centres unmarked) [Example E5, 1-(3-Hydroxybutyl)-3-n-butyl-7-(2-hydroxypropyl) xanthine], the “Percentage of animals with recall latencies >60s” value in assay [1] is recorded as 32*. Further, in assay [2] (5.0 mg/kg i.v., n 4), the “CHANGE in pO2 (Torr) (mean ± SEM)” value is given as 2.3 ± 1.6 Torr. In addition, the Ki in assay [3] was 128 µM.

For the compound `CCCCn1c(=O)c2c(ncn2CC(C)O)n(CCC(C)O)c1=O` (centres unmarked) [Example E6, 1-n-Butyl-3-(3-hydroxybutyl)-7-(2-hydroxypropyl)xanthine], the “Percentage of animals with recall latencies >60s” value in assay [1] is given as 33*. The “CHANGE in pO2 (Torr) (mean ± SEM)” value in assay [2] (1.0 mg/kg i.v., n 8) was 2.2 ± 0.6 Torr. Further, the Ki in assay [3] is 94 µM.

Consider `CCCCn1c(=O)n(CCC(C)O)c(=O)c2c1ncn2CC(C)=O` (centres unmarked) [Example E7, 1-(3-Hydroxybutyl)-3-n-butyl-7-(2-oxopropyl)xanthine], for which, in assay [3], the Ki was 13 µM.

As to `CCCCn1c(=O)n(CCC(C)=O)c(=O)c2c1ncn2CC(C)O` (centres unmarked) [Example E8, 1-(3-Oxobutyl)-3-n-butyl-7-(2-hydroxypropyl) xanthine], in assay [3], the Ki is 160 µM. Same read-out and setting: next, `CCCCn1c(=O)c2c(ncn2CC(C)=O)n(CCC(C)O)c1=O` (centres unmarked) [Example E9, 1-n-Butyl-3-(3-hydroxybutyl)-7-(2-oxopropyl)xanthine]: 13 µM. Still for that read-out and setting: next, `CC(=O)Cn1cnc2c1c(=O)n(CCC(C)O)c(=O)n2CCC(C)O` (centres unmarked) [Example E11, 1,3-bis-(3-Hydroxybutyl)-7-(2-oxopropyl)xanthine]: 81 µM.

As for `CC(O)CCn1c(=O)c2c(ncn2CC(C)O)n(CCC(C)O)c1=O` (centres unmarked) [Example E14, 1,3-bis-(3-Hydroxybutyl)-7-(2-hydroxypropyl)xanthine], the Ki in assay [3] is 815 µM.
